# Earlier results in patent US20120009125A1, “APOE4 AND APOJ BIOMARKER-BASED PREVENTION AND TREATMENT OF DEMENTIA” (priority 2010, published 2012).
# Read-outs that look alike come from different tables or passages of the source.
# Columns and labels:
# HSPs = settings: oral administration
# Hsp70, Hsp90, and Hsp105 = settings: cell model
smiles,measurement,setting,value
"CC(=O)CC/C=C(\C)CC/C=C(\C)CC/C=C(\C)CCC=C(C)C [GGA, (9E;13E)-6,10,14,18-tetramethyl-5,9,13,17-nonadecatetraen-2-one]",cell death,cell model,inhibited
same,solubility in water,,practically insoluble
same,expression of HSPs in the central nervous system,HSPs,up-regulated
same,"levels of Hsp70, Hsp90, and Hsp105","Hsp70, Hsp90, and Hsp105",increased
same,amyloid oligomer levels and aggregates,amyloid oligomer,reduces
same,amyloid oligomer levels and aggregates,amyloid oligomer; oral administration,reduces
